# Laboratory results as given in ChEMBL document CHEMBL4811220, “Investigation of the in vitro and in vivo efficacy of peptoid-based HDAC inhibitors with dual-stage antiplasmodial activity” (Eur J Med Chem, 2021).
# Calls of active or inactive are those of the source. The rule behind the calls is not given here.
# How the values were obtained:
# [1] = Intrinsic clearance in human liver microsomes measured upto 40 mins by LC-MS/MS analysis; format: ADME, Microsome; conditions: read-out: CLH
# [2] = Half life in human liver microsomes measured upto 40 mins by LC-MS/MS analysis; format: ADME, Microsome
# Plasmodium falciparum [3] = assay: microbe, parasite or virus in culture; format: functional, organism-based; conditions: 3D7, Erythrocyte
# HepG2 = assay: Cytotoxicity against human HepG2-A16-CD81EGFP cells assessed as inhibition of cell growth incubated for 24 hrs followed by medium transfer and incubation in multimode plate for 48 hrs by CellTiterGlo reagent based luminescence assay
# [4] = Selectivity index, ratio of IC50 for cytotoxicity against human HepG2-A16-CD81EGFP cells to IC50 for antiplasmodial activity against drug-sensitive asexual intraerythrocytic stage of Plasmodium falciparum 3D7 infected in human O+ erythrocytes
# Plasmodium berghei [5] = assay: microbe, parasite or virus in culture; format: functional, organism-based
# Histone deacetylase 1 = Histone deacetylase 1 (Homo sapiens, UniProt Q13547)
# Description: Inhibition of C-terminal FLAG/His-tagged human recombinant HDAC1 (1 to 482 residues) expressed in baculovirus infected Sf9 cells using ZMAL (Z-Lys(Ac)-AMC) as fluorogenic substrate incubated for 90 mins by fluorescence based assay
# [6] = molecular target: T1, Protein deacetylase HDAC6 (Homo sapiens, UniProt Q9UBN7); assay: biochemical
# T1 sequence (Q9UBN7 whole entry): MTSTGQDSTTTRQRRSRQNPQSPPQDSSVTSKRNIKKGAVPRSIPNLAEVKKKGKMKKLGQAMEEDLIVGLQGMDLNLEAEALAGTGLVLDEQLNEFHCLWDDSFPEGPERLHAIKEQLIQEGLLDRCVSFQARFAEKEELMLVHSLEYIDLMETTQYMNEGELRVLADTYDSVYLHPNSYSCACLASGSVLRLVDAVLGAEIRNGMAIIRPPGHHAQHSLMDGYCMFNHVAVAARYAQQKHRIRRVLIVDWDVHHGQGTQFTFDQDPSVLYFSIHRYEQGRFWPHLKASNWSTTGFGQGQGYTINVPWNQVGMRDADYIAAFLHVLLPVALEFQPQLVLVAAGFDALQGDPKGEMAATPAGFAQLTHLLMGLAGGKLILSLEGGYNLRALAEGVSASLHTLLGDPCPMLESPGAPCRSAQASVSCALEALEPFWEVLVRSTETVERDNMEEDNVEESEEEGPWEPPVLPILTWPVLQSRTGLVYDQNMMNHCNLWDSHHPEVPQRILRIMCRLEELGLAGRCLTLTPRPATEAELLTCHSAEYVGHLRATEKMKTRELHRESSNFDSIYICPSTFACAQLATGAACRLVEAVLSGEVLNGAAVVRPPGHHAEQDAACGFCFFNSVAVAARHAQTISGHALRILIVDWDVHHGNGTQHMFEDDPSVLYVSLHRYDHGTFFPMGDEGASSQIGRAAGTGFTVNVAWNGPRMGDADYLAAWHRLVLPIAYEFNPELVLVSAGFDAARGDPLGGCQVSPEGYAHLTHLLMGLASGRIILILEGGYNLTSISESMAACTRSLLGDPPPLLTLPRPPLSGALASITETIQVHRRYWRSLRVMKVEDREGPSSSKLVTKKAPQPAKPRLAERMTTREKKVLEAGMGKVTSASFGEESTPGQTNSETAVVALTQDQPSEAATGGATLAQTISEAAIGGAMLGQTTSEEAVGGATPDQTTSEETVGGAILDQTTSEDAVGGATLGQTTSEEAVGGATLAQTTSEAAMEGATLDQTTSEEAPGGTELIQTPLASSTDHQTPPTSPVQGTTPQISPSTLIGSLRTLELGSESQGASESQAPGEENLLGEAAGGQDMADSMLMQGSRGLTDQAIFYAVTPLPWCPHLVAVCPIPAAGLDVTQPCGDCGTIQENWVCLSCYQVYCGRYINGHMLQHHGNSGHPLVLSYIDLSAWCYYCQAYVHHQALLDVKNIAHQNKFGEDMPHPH
# Description: Inhibition of N-terminal GST-tagged full length human recombinant HDAC6 expressed in baculovirus infected Sf9 cells using ZMAL (Z-Lys(Ac)-AMC) fluorogenic substrate incubated for 90 mins by fluorescence based assay
# Plasmodium falciparum [7] = assay: Resistance index, ratio of IC50 for antiplasmodial activity against multidrug-resistant asexual intraerythrocytic stage of Plasmodium falciparum Dd2 to IC50 for antiplasmodial activity against drug-sensitive asexual intraerythrocytic stage of Plasmodium falciparum 3D7 infected in human O+ erythrocytes by [3H]-hypoxanthine incorporation assay; format: functional
# Plasmodium falciparum [8] = assay: Antiplasmodial activity against multidrug-resistant asexual intraerythrocytic stage of Plasmodium falciparum Dd2 assessed as inhibition of parasite growth incubated for 48 hrs followed by addition of [3H]hypoxanthine for 24 hrs by [3H]hypoxanthine incorporation assay; format: functional, organism-based
# [9] = Selective index, ratio of IC50 for human HepG2-A16-CD81EGFP cells to IC50 for antiplasmodial activity against liver stage exo-erythrocytic forms of Plasmodium berghei sporozoites infected in human HepG2-A16-CD81EGFP cells
# [10] = test system: Plasmodium falciparum 3D7; assay: Inhibition of HDAC in trophozite-stage of Plasmodium falciparum 3D7 infected in erythrocytes assessed as hyperacetylation of histone H4 at lysine residue at 5 x IC50 incubated for 3 hrs by western blot analysis relative to control; format: cell-based
# [11] = Intrinsic clearance in mouse liver microsomes measured upto 40 mins by LC-MS/MS analysis
# [12] = Half life in mouse liver microsomes measured upto 40 mins by LC-MS/MS analysis
# Plasmodium berghei [13] = assay: (§1) Antimalarial activity against Plasmodium berghei QIMR infected in BALB/c mouse assessed as reduction in peripheral blood parasitemia at 25 mg/kg, po bid for 4 days starting from 2 hrs post infection and measured on 4 to 6 days post-infection by Giemsa staining based microscopic analysis relative to control; format: functional; conditions: time 4-6 day
# [14] = test system: Plasmodium falciparum 3D7; assay: Inhibition of HDAC in trophozite-stage of Plasmodium falciparum 3D7 infected in erythrocytes assessed as hyperacetylation of histone H4 at lysine residue at 5 x IC50 incubated for 3 hrs by western blot analysis; format: cell-based
# [15] = Selectivity index, ratio of IC50 for cytotoxicity against human HepG2-A16-CD81EGFP cells to IC50 for antiplasmodial activity against multidrug-resistant asexual intraerythrocytic stage of Plasmodium falciparum Dd2; format: toxicity, cell-based; conditions: read-out: Ratio IC50
# Plasmodium berghei [16] = assay: as §1, with “10” for “25”, “qd” for “bid”, “post-infection” for “post infection”; conditions: read-out: INH
# Sequence of Histone deacetylase 1 (Q13547 whole entry): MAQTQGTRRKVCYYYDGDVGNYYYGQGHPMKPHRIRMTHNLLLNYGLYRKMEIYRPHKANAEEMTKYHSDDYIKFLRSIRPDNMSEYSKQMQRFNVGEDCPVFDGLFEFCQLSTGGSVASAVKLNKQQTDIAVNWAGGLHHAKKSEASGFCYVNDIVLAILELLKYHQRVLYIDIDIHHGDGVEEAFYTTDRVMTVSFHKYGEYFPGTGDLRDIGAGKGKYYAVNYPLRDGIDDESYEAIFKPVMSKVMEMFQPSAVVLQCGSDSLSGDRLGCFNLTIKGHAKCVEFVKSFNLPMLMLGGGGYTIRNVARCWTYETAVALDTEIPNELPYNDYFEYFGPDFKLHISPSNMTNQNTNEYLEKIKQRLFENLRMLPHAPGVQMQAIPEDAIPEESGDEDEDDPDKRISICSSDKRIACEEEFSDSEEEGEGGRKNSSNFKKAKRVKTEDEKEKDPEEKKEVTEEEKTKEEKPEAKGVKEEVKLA
half-life at 40 min ([12]; microsomes) [min],Compound,microsomal CLint [1] [µL/min/mg],half-life [2] [min],IC50 (Plasmodium falciparum [3]) [nM],IC50 (HepG2) [nM],selectivity ratio [4],IC50 (Plasmodium berghei [5]) [nM],IC50 (Histone deacetylase 1) [nM],IC50 [6] [nM],Ratio IC50 (Plasmodium falciparum [7]),IC50 (Plasmodium falciparum [8]) [nM],selectivity ratio [9],fold change (FC) [10],microsomal CLint at 40 min [11] [µL/min/mg],half-life at 40 min ([12]; liver microsomes) [min],inhibition in vivo at 25 mg/kg (Plasmodium berghei [13]) [%],inhibition [14],selectivity ratio [15],inhibition in vivo at 10 mg/kg/day (Plasmodium berghei [16]) [%]
,Cn1c(=O)c2c(ncn2C)n(C)c1=O [CAFFEINE],2,1030,,,,,,,,,,,,,,,,
,Cc1cc(C)cc(C(=O)N(CC(=O)N(C)C)Cc2ccc(C(=O)NO)cc2)c1,,,1040,> 50000,> 48,8250,8000,230,,,,,,,,,,
,Cc1ccccc1C(=O)N(CC(=O)NCc1ccccc1)Cc1ccc(C(=O)NO)cc1,,,70,9620,137,300,280,30,0.3,21,32,2,,,,,,
,Cc1ccc(C(=O)N(CC(=O)NC2CCCCC2)Cc2ccc(C(=O)NO)cc2)c(C)c1,139,12.2,8,8330,1040,60,260,40,0.5,4,139,,94,17.9,31,inactive,,
,CNC(=O)CN(Cc1ccc(C(=O)NO)cc1)C(=O)c1ccc(C(C)C)cc1,5,347,16,9160,573,480,100,60,0.1,2,19,,6,271,33.3,Active,4580,
,O=C(CN(Cc1ccc(C(=O)NO)cc1)C(=O)Cc1ccccc1)NCc1ccccc1,,,213,21900,103,920,600,30,,,24,,,,,,,
,O=C(CN(Cc1ccc(C(=O)NO)cc1)C(=O)Cc1ccccc1)NC1CCCCC1,,,281,> 50000,> 178,820,2430,50,,,> 61,,,,,,,
,CC(C)c1ccc(C(=O)N(CC(=O)NC23CC4CC(CC(C4)C2)C3)Cc2ccc(C(=O)NO)cc2)cc1,,,28,4320,154,340,300,250,0.2,6,13,,,,,,,
,O=C(CCCCCCC(=O)Nc1ccccc1)NO [VORINOSTAT],,,,7600,,,,,,,,,,,,,,
,Cc1ccc(C(=O)N(CC(=O)NCc2ccccc2)Cc2ccc(C(=O)NO)cc2)c(C)c1,86,19.7,24,3710,155,160,60,60,0.1,3,23,2,38,44.8,17.6,,,
,Cc1cc(C)cc(C(=O)N(CC(=O)N2CCCCC2)Cc2ccc(C(=O)NO)cc2)c1,,,509,35000,69,6560,4050,130,,,5,,,,,,,
,CC(C)c1ccc(C(=O)N(Cc2ccc(C(=O)NO)cc2)C(C)(C)C(=O)NC2CCCCC2)cc1,144,11.7,101,> 50000,> 495,4900,970,270,0.3,33,> 10,,30,55.6,0.5,inactive,,
,O=C(CN(Cc1ccc(C(=O)NO)cc1)C(=O)c1cccc2ccccc12)NCc1ccccc1,41,41.4,34,12800,376,630,130,10,0.4,14,20,,87,19.3,25.9,Active,,
,CC(C)c1ccc(CC(=O)N(CC(=O)NCc2ccccc2)Cc2ccc(C(=O)NO)cc2)cc1,,,76,30000,395,2700,780,20,0.3,23,11,,,,,Active,,
,CCN(CC)CCCC(C)Nc1ccnc2cc(Cl)ccc12 (stereo unspecified) [CHLOROQUINE],,,,,,,,,,,,,,,,,,100
,Cc1ccccc1C(=O)N(CC(=O)NC12CC3CC(CC(C3)C1)C2)Cc1ccc(C(=O)NO)cc1,,,127,13000,102,540,100,30,,,24,,,,,,,
,CN(C)c1ccc(C(=O)N(Cc2ccc(C(=O)NO)cc2)C(C)(C)C(=O)NCc2ccccc2)cc1,,,161,> 50000,> 311,4270,440,70,,,> 12,,,,,,,
,CC(C)c1ccc(CC(=O)N(CC(=O)NC2CCCCC2)Cc2ccc(C(=O)NO)cc2)cc1,,,215,25100,117,2020,2030,40,,,12,,,,,,,
,CC(C)c1ccc(NC(=O)CN(Cc2ccc(C(=O)NO)cc2)C(=O)Cc2ccccc2)cc1,72,23.5,,,,,,,,,,,38,44.3,,,,
,O=C(O)Cc1ccccc1Nc1c(Cl)cccc1Cl [DICLOFENAC],248,6.8,,,,,,,,,,,,,,,,
54.3,CC(C)NCC(O)COc1cccc2ccccc12 (stereo unspecified) [PROPRANOLOL],,,,,,,,,,,,,,,,,,
,CC(C)c1ccc(C(=O)N(Cc2ccc(C(=O)NO)cc2)C(C)(C)C(=O)NCc2ccccc2)cc1,,,142,> 50000,> 352,8670,280,60,,,> 6,,,,,,,
